# How the values were obtained:
# [1] = target: Prostaglandin G/H synthase 1 (Ovis aries) (UniProt P05979); assay: Inhibition of PGH synthase was determined by measuring oxygen consumption with a Clark oxygen electrode at 25 uM; design: scale not given: the % may be the effect or the level left
# [2] = target: Prostaglandin G/H synthase 1 (Ovis aries) (UniProt P05979); assay: Inhibition of PGH synthase by measuring oxygen consumption with a Clark oxygen electrode at 100 uM; design: scale not given: the % may be the effect or the level left
# Prostaglandin G/H synthase 1 (Ovis aries), sequence (P05979 whole entry, looked up): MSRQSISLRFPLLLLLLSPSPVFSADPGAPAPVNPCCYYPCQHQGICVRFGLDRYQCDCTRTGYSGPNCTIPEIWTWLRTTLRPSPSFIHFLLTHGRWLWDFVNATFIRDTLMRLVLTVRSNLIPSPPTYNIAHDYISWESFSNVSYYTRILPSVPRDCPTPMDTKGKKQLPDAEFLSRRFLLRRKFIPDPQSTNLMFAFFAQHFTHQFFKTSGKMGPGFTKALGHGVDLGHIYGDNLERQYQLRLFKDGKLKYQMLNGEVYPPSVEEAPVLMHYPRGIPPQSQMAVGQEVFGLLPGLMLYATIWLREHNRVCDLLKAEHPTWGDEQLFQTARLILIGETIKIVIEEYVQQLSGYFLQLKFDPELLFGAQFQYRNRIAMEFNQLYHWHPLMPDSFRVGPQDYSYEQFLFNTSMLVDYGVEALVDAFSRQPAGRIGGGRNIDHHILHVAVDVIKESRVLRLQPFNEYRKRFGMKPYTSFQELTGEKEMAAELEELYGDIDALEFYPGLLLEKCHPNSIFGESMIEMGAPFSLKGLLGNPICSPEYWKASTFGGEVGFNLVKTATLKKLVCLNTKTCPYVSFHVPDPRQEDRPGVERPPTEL
Structure (SMILES),Control [1] [%],Control [2] [%]
O=C1C(CC#CCCl)C(=O)N(c2ccccc2)N1c1ccccc1,35,10
CC(C)=C1C(=O)N(c2ccccc2)N(c2ccccc2)C1=O,89,63
CC(C)(C#N)C1C(=O)N(c2ccccc2)N(c2ccccc2)C1=O,23,5
CC(=C1C(=O)N(c2ccccc2)N(c2ccccc2)C1=O)c1ccccc1,73,31
O=C1C(=C/C=C/c2ccccc2)C(=O)N(c2ccccc2)N1c1ccccc1,,96
O=C(CCl)NCCC1C(=O)N(c2ccccc2)N(c2ccccc2)C1=O,,90
CCC(C)=C1C(=O)N(c2ccccc2)N(c2ccccc2)C1=O,49,21
CCCC=C1C(=O)N(c2ccccc2)N(c2ccccc2)C1=O,29,18
O=C(CBr)NCCC1C(=O)N(c2ccccc2)N(c2ccccc2)C1=O,,79
O=C(NCCC1C(=O)N(c2ccccc2)N(c2ccccc2)C1=O)Oc1ccccc1,78,42

# — ChEMBL document CHEMBL1123922
